pEC50: −log10 of the molar value. Read-outs that look alike come from different tables or passages of the source. *1 amine or outer side, *2 acyl side, *3 side chain or, on linkers, in order; H or OH if unused. Where a SMILES comes first, the peptide text is derived from it. Where no end group is shown, it is not given here. Side-chain parts run from the residue outwards. [ ]: non-standard residue; d: D form. The star is where a group is joined. γGlu = O=C(O)[C@H](CCC(=O)[*:2])N[*:1]; Palmitoyl = CCCCCCCCCCCCCCCC(=O)*; Aib = CC(C)(N)C(=O)O
Experiments:
hGIPR = molecular target: T1, hGIPR (Homo sapiens, UniProt P48546); assay: hGIPR-mediated cAMP induction assay in CHO cell line; assay type: cell-based
T1 construct: expressed in transfected cells; host or cells: CHO
T1 sequence (P48546 22-466): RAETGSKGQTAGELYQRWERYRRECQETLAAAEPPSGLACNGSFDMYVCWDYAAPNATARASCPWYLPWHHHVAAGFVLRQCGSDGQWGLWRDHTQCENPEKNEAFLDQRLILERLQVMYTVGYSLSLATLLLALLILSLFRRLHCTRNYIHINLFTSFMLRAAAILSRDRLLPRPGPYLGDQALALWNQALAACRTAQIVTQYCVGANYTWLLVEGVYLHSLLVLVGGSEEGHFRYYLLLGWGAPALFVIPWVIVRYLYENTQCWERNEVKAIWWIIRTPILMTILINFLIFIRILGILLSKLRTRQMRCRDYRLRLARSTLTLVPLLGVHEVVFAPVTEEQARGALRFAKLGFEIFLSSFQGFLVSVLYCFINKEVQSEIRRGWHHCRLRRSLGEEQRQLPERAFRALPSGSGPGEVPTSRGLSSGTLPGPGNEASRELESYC
Text: (§1) The cAMP in the sample or standard competes with horseradish peroxidase (HRP)-labeled cAMP conjugate for binding sites on the anti-cAMP antibodies. In the absence of cAMP, most of the HRP-cAMP conjugate is bound to the antibody. Increasing concentrations of cAMP competitively decrease the amount of bound conjugate, thus decreasing measured HRP activity.
(§2) Assay kit: CatchPoint™ Cyclic-AMP Fluorescent Assay Kit (Molecular Devices, Product # R8088)
Cell lines: CHO hGLP1R, CHO hGIPR
(§3) Cell seeding: CHO hGLP1R or CHO hGIPR cells: 10,000 cells/well/100 uL at 37° C. 5% CO2 overnight.
(§4) Gently aspirate off media and wash the cells with KRBG Buffer, 100 uL/well.
(§5) Incubate the plate for 10 min at room temperature. Then add the KRBG buffer with 3× final concentration of the tested samples (5-foled series diluted from 5,000 nM), 50 uL/well. Incubate the plate at 37° C. 5% CO2 for 30 min.
(§6) Add 50 uL of Lysis buffer to each well and put the plate on a shaker for 10 min.
(§7) Place 40 uL of samples and analyze in appropriate wells. And test the cAMP concentration in each sample by following the manufacture's instruction.
(§8) Detect the fluorescence signal at Ex: 490 nm and Em: 530 nm. Transfer the FI signal to cAMP concentration by the cAMP standard curve. The Dose-response curve and EC50 were obtained by logistic fitting of Origin 8.

hGLP-1R = molecular target: T2, hGLP-1R (Homo sapiens, UniProt P43220); assay: hGLP-1R-mediated cAMP induction assay in CHO cell line; assay type: cell-based;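 further: CHO cells expressing human GLP-1R, treated 30 min at 37 °C, intracellular cAMP measured by competitive fluorescent immunoassay and converted via a cAMP standard curve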
T2 construct: expressed in transfected cells; host or cells: CHO
T2 sequence (P43220 24-463): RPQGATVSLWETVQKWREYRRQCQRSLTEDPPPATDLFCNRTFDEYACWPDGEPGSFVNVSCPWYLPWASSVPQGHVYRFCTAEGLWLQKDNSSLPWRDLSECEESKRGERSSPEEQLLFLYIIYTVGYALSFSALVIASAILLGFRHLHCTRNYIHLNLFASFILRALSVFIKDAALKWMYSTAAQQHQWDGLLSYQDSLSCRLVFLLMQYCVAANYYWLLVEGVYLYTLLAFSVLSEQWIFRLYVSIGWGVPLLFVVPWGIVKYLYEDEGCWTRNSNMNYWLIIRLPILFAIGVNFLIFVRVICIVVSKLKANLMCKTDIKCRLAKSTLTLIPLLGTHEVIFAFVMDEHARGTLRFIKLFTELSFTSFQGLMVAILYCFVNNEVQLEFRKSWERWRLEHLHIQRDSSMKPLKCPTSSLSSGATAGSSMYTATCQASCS
Text: as §1, §2
Cell lines: CHO hGLP1R, CHO hGIPR
as §3, §4, §5, §6, §7, §8

## CCCCCCCCCCCCCCCC(=O)N[C@@H](CCC(=O)N[C@@H](CCC(=O)NCCCC[C@H](NC(=O)[C@@H](NC(=O)[C@H](C)NC(=O)[C@H](CCC(=O)O)NC(=O)[C@H](CCCCN)NC(=O)[C@H](CCC(=O)O)NC(=O)[C@H](CCSC)NC(=O)[C@H](Cc1ccc(O)cc1)NC(=O)[C@@H](NC(=O)[C@H](CO)NC(=O)[C@H](Cc1ccc(O)cc1)NC(=O)[C@H](CC(=O)O)NC(=O)[C@H](CO)NC(=O)[C@@H](NC(=O)[C@H](Cc1ccccc1)NC(=O)[C@@H](NC(=O)CNC(=O)[C@H](CCC(=O)O)NC(=O)C(C)(C)NC(=O)[C@@H](N)Cc1ccc(O)cc1)[C@@H](C)O)[C@@H](C)O)[C@@H](C)CC)C(C)C)C(=O)N[C@@H](CCC(=O)O)C(=O)N[C@@H](Cc1ccccc1)C(=O)N[C@H](C(=O)N[C@@H](C)C(=O)N[C@@H](Cc1c[nH]c2ccccc12)C(=O)N[C@@H](CC(C)C)C(=O)N[C@H](C(=O)N[C@@H](CCCCN)C(=O)NCC(=O)NCC(=O)N1CCC[C@H]1C(=O)N[C@@H](CO)C(=O)N[C@@H](CO)C(=O)NCC(=O)N[C@@H](C)C(=O)N1CCC[C@H]1C(=O)N1CCC[C@H]1C(=O)N1CCC[C@H]1C(=O)N[C@@H](CO)C(N)=O)C(C)C)[C@@H](C)CC)C(=O)O)C(=O)O [Compound 093] (H-Y[Aib]EGTFTSDYSIYMEKEAVK([γGlu-γGlu-Palmitoyl])EFIAWLVKGGPSSGAPPPS-NH2)
hGIPR; Table 3, CHO hGIPR cells
  pEC50: 10.52
hGIPR; Table 3, against native GIP
  GIP Receptor Relative Potency: 133.3
hGLP-1R; Table 3, CHO hGLP1R cells
  pEC50: 9.37
hGLP-1R; Table 3, against native GLP-1
  GLP-1 Receptor Relative Potency: 232.5

## CC[C@H](C)[C@H](NC(=O)[C@H](Cc1ccccc1)NC(=O)[C@H](CCC(=O)O)NC(=O)[C@H](CCCNC(=N)N)NC(=O)[C@@H](NC(=O)[C@H](C)NC(=O)[C@H](CCC(=O)O)NC(=O)[C@H](CCCCN)NC(=O)[C@H](CCC(=O)O)NC(=O)[C@H](CCSC)NC(=O)[C@H](Cc1ccc(O)cc1)NC(=O)[C@@H](NC(=O)[C@H](CO)NC(=O)[C@H](Cc1ccc(O)cc1)NC(=O)[C@H](CC(=O)O)NC(=O)[C@H](CO)NC(=O)[C@@H](NC(=O)[C@H](Cc1ccccc1)NC(=O)[C@@H](NC(=O)CNC(=O)[C@H](CCC(=O)O)NC(=O)C(C)(C)NC(=O)[C@@H](N)Cc1ccc(O)cc1)[C@@H](C)O)[C@@H](C)O)[C@@H](C)CC)C(C)C)C(=O)N[C@@H](C)C(=O)N[C@@H](Cc1c[nH]c2ccccc12)C(=O)N[C@@H](CC(C)C)C(=O)N[C@H](C(=O)N[C@@H](CCCCN)C(=O)NCC(N)=O)C(C)C [Compounds 023] (H-Y[Aib]EGTFTSDYSIYMEKEAVREFIAWLVKG-NH2)
hGIPR; Table 1, CHO/hGIPR cells, read-out: GIPR EC50
  pEC50: 10.06
hGIPR; Table 1, against native GIP
  GIPR Relative Potency: 106.8%
hGIPR; Table 3, against native GIP
  GIP Receptor Relative Potency: 106.8
hGLP-1R; Table 1, CHO/hGLP-1R cells, read-out: GLP-1R EC50
  pEC50: 8.89
hGLP-1R; Table 1, against native GLP-1
  GLP-1R Relative Potency: 75%
hGLP-1R; Table 3, against native GLP-1
  GLP-1 Receptor Relative Potency: 75

## CC[C@H](C)[C@H](NC(=O)[C@H](Cc1ccccc1)NC(=O)[C@H](CCC(=O)O)NC(=O)[C@H](CCCNC(=N)N)NC(=O)[C@@H](NC(=O)[C@H](C)NC(=O)[C@H](CCC(=O)O)NC(=O)[C@H](CCCCN)NC(=O)[C@H](CCC(=O)O)NC(=O)[C@H](CCSC)NC(=O)[C@H](Cc1ccc(O)cc1)NC(=O)[C@@H](NC(=O)[C@H](CO)NC(=O)[C@H](Cc1ccc(O)cc1)NC(=O)[C@H](CC(=O)O)NC(=O)[C@H](CO)NC(=O)[C@@H](NC(=O)[C@H](Cc1ccccc1)NC(=O)[C@@H](NC(=O)CNC(=O)[C@H](CCC(=O)O)NC(=O)C(C)(C)NC(=O)[C@@H](N)Cc1ccc(O)cc1)[C@@H](C)O)[C@@H](C)O)[C@@H](C)CC)C(C)C)C(=O)N[C@@H](C)C(=O)N[C@@H](Cc1c[nH]c2ccccc12)C(=O)N[C@@H](CC(C)C)C(=O)N[C@H](C(=O)N[C@@H](CCCCN)C(=O)NCC(=O)NCC(=O)N1CCC[C@H]1C(=O)N[C@@H](CO)C(=O)N[C@@H](CO)C(=O)NCC(=O)N[C@@H](C)C(=O)N1CCC[C@H]1C(=O)N1CCC[C@H]1C(=O)N1CCC[C@H]1C(=O)N[C@@H](CO)C(N)=O)C(C)C [Compound 051] (H-Y[Aib]EGTFTSDYSIYMEKEAVREFIAWLVKGGPSSGAPPPS-NH2; N-terminus assumed)
hGIPR; Table 3, CHO hGIPR cells
  pEC50: 9.72
hGIPR; Table 3, against native GIP
  GIP Receptor Relative Potency: 89.5
hGLP-1R; Table 3, CHO hGLP1R cells
  pEC50: 9.22
hGLP-1R; Table 3, against native GLP-1
  GLP-1 Receptor Relative Potency: 159.8

## Y[Aib]EGTFTSDYSIYMEKEAVREFIAWLVKGGPSSGAPPPSKKKKKK-NH2 [Compound 071]
hGIPR; Table 3, CHO hGIPR cells
  pEC50: 9.11
hGIPR; Table 3, against native GIP
  GIP Receptor Relative Potency: 22.1
hGLP-1R; Table 3, CHO hGLP1R cells
  pEC50: 8.42
hGLP-1R; Table 3, against native GLP-1
  GLP-1 Receptor Relative Potency: 25.1

## CC[C@H](C)[C@H](NC(=O)[C@H](CO)NC(=O)[C@H](Cc1ccc(O)cc1)NC(=O)[C@H](CC(=O)O)NC(=O)[C@H](CO)NC(=O)[C@@H](NC(=O)[C@H](Cc1ccccc1)NC(=O)[C@@H](NC(=O)CNC(=O)[C@H](CCC(=O)O)NC(=O)C(C)(C)NC(=O)[C@@H](N)Cc1ccc(O)cc1)[C@@H](C)O)[C@@H](C)O)C(=O)N[C@@H](Cc1ccc(O)cc1)C(=O)N[C@@H](CCSC)C(=O)N[C@@H](CCC(=O)O)C(=O)N[C@@H](CCCCN)C(=O)N[C@@H](CCC(=O)O)C(=O)N[C@@H](C)C(=O)N[C@H](C(=O)N[C@@H](CCCNC(=N)N)C(=O)N[C@@H](CCC(=O)O)C(=O)N[C@@H](Cc1ccccc1)C(=O)N[C@H](C(=O)N[C@@H](CS)C(=O)N[C@@H](Cc1c[nH]c2ccccc12)C(=O)N[C@@H](CC(C)C)C(=O)N[C@H](C(=O)N[C@@H](CCCCN)C(=O)NCC(=O)NCC(=O)N1CCC[C@H]1C(=O)N[C@@H](CO)C(=O)N[C@@H](CO)C(=O)NCC(=O)N[C@@H](C)C(=O)N1CCC[C@H]1C(=O)N1CCC[C@H]1C(=O)N1CCC[C@H]1C(=O)N[C@@H](CO)C(=O)N[C@@H](CCCCN)C(N)=O)C(C)C)[C@@H](C)CC)C(C)C [Compound 105] (H-Y[Aib]EGTFTSDYSIYMEKEAVREFICWLVKGGPSSGAPPPSK-NH2; N-terminus assumed)
hGIPR; Table 3, CHO hGIPR cells
  pEC50: 9.40
hGLP-1R; Table 3, CHO hGLP1R cells
  pEC50: 8.40

## CC[C@H](C)[C@H](NC(=O)[C@H](CO)NC(=O)[C@H](Cc1ccc(O)cc1)NC(=O)[C@H](CC(=O)O)NC(=O)[C@H](CO)NC(=O)[C@@H](NC(=O)[C@H](Cc1ccccc1)NC(=O)[C@@H](NC(=O)CNC(=O)[C@H](CCC(=O)O)NC(=O)C(C)(C)NC(=O)[C@@H](N)Cc1ccc(O)cc1)[C@@H](C)O)[C@@H](C)O)C(=O)N[C@@H](Cc1ccc(O)cc1)C(=O)N[C@@H](CCSC)C(=O)N[C@@H](CCC(=O)O)C(=O)N[C@@H](CCCCN)C(=O)N[C@@H](CCC(=O)O)C(=O)N[C@@H](C)C(=O)N[C@H](C(=O)N[C@@H](CCCNC(=N)N)C(=O)N[C@@H](CCC(=O)O)C(=O)N[C@@H](Cc1ccccc1)C(=O)N[C@H](C(=O)N[C@@H](CCC(=O)O)C(=O)N[C@@H](Cc1c[nH]c2ccccc12)C(=O)N[C@@H](CC(C)C)C(=O)N[C@H](C(=O)N[C@@H](CCCCN)C(=O)NCC(N)=O)C(C)C)[C@@H](C)CC)C(C)C [Compound 054-1] (H-Y[Aib]EGTFTSDYSIYMEKEAVREFIEWLVKG-NH2)
hGIPR; Table 3, CHO hGIPR cells
  pEC50: 9.57
hGIPR; Table 3, against native GIP
  GIP Receptor Relative Potency: 77.7
hGLP-1R; Table 3, CHO hGLP1R cells
  pEC50: 8.52

## CC[C@H](C)[C@H](NC(=O)[C@H](Cc1ccccc1)NC(=O)[C@H](CCC(=O)O)NC(=O)[C@H](CCCNC(=N)N)NC(=O)[C@@H](NC(=O)[C@H](C)NC(=O)[C@H](CCC(=O)O)NC(=O)[C@H](CCCCN)NC(=O)[C@H](CCC(=O)O)NC(=O)[C@H](CCSC)NC(=O)[C@H](Cc1ccc(O)cc1)NC(=O)[C@@H](NC(=O)[C@H](CO)NC(=O)[C@H](Cc1ccc(O)cc1)NC(=O)[C@H](CC(=O)O)NC(=O)[C@H](CO)NC(=O)[C@@H](NC(=O)[C@H](Cc1ccccc1)NC(=O)[C@@H](NC(=O)CNC(=O)[C@H](CCC(=O)O)NC(=O)C(C)(C)NC(=O)[C@@H](N)Cc1ccc(O)cc1)[C@@H](C)O)[C@@H](C)O)[C@@H](C)CC)C(C)C)C(=O)N[C@@H](C)C(=O)N[C@@H](Cc1c[nH]c2ccccc12)C(=O)N[C@@H](CC(C)C)C(=O)N[C@H](C(=O)N[C@@H](CCCCN)C(=O)NCC(=O)NCC(=O)N1CCC[C@H]1C(=O)N[C@@H](CO)C(=O)N[C@@H](CO)C(=O)NCC(=O)N[C@@H](C)C(=O)N1CCC[C@H]1C(=O)N1CCC[C@H]1C(=O)N1CCC[C@H]1C(=O)N[C@@H](CO)C(=O)N[C@@H](CCCCNC(=O)CCCCCCCCCCCCCCC(=O)O)C(N)=O)C(C)C [Compound 106]
hGIPR; Table 3, CHO hGIPR cells
  pEC50: 10.01
hGIPR; Table 3, against native GIP
  GIP Receptor Relative Potency: 67.0
hGLP-1R; Table 3, CHO hGLP1R cells
  pEC50: 9.04
hGLP-1R; Table 3, against native GLP-1
  GLP-1 Receptor Relative Potency: 157.8

## CCCCCCCCCCCCCCCC(=O)NCCCC[C@H](NC(=O)[C@@H](NC(=O)[C@H](C)NC(=O)[C@H](CCC(=O)O)NC(=O)[C@H](CCCCN)NC(=O)[C@H](CCC(=O)O)NC(=O)[C@H](CCSC)NC(=O)[C@H](Cc1ccc(O)cc1)NC(=O)[C@@H](NC(=O)[C@H](CO)NC(=O)[C@H](Cc1ccc(O)cc1)NC(=O)[C@H](CC(=O)O)NC(=O)[C@H](CO)NC(=O)[C@@H](NC(=O)[C@H](Cc1ccccc1)NC(=O)[C@@H](NC(=O)CNC(=O)[C@H](CCC(=O)O)NC(=O)C(C)(C)NC(=O)[C@@H](N)Cc1ccc(O)cc1)[C@@H](C)O)[C@@H](C)O)[C@@H](C)CC)C(C)C)C(=O)N[C@@H](CCC(=O)O)C(=O)N[C@@H](Cc1ccccc1)C(=O)N[C@H](C(=O)N[C@@H](C)C(=O)N[C@@H](Cc1c[nH]c2ccccc12)C(=O)N[C@@H](CC(C)C)C(=O)N[C@H](C(=O)N[C@@H](CCCCN)C(=O)NCC(N)=O)C(C)C)[C@@H](C)CC [Compound 067] (H-Y[Aib]EGTFTSDYSIYMEKEAVK(Palmitoyl)EFIAWLVKG-NH2)
hGIPR; Table 3, against native GIP
  GIP Receptor Relative Potency: 4.6
hGLP-1R; Table 3, against native GLP-1
  GLP-1 Receptor Relative Potency: 13.9

Reference: US9453062B2, “Glucose dependent insulinotropic polypeptide analogs, pharmaceutical compositions and use thereof” (Beijing Hanmi Pharmaceutical Co., Ltd., priority 2011, dated 2016)
